{"source": "patent US20210403864A1", "about": "“METHODS AND COMPOSITIONS FOR TREATING ACTIVATED G-ALPHA Q MUTANT CANCERS OR MELANOCYTIC MALIGNANCIES” (Memorial Sloan Kettering Cancer Center, priority 2018, published 2021)", "key": {"[1]": {"tested_on": "human Mel202 uveal melanoma xenografts", "experiment": "In vivo anti-tumor activity, xenografts in SCID mice", "conditions": "MEK162 10 mg/kg P.O. b.i.d.; YM-254890 2.5 mg/kg i.p. q.d.; over 20 days; single agents vs vehicle, combination vs vehicle and single agents", "description": "To evaluate the effect of YM-254890 and binimetinib (MEK162) in vivo, Mel202 uveal melanoma xenografts were established in SCID mice, and the mice were treated with vehicle only, 10 mg/kg MEK162 (P.O., b.i.d.), YM-254890 (2.5 mg/kg i.p., q.d.) or a combination of MEK162 and YM-254890. Tumor volumes were measured over 20 days."}, "[2]": {"tested_on": "PKC and MAPK signaling (pRASGRP3, p-CRAF, p-MEK1/2, p-ERK1/2), cyclin D1 protein", "experiment": "Western blot of downstream UVM signaling in UVM cells and A375 cells", "type": "cell-based, human", "conditions": "for inhibition of PKC and MAPK signaling and cyclin D1 protein / inhibition of MAPK targets (p-CRAF, p-MEK1/2, p-ERK1/2) / change in pRASGRP3: 500 nM YM; for inhibition of MAPK targets (p-CRAF, p-MEK1/2, p-ERK1/2): 2 hours", "description": "Immunoblotting. Lysates were harvested using SDS lysis buffer (50 mM Tris-HCL, pH 6.8, 1 mM EDTA, 150 mM NaCl, 1% SDS, […]) supplemented with fresh proteinase and phosphatase inhibitors (PhosSTOP, Roche, Basel, Switzerland; Complete EDTA-Free, Roche, Basel, Switzerland) and 1% PMSF (Sigma-Aldrich, St. Louis, Mo.). Lysates were incubated on ice for 30 minutes, sonicated for 15 minutes, and then centrifuged at max speed for 10 minutes at 4° C. Protein levels were quantified using BCA protein assay (Thermo Scientific, Waltham, Mass.). NuPAGE LDS Sample Buffer (4×) was added to a final concentration of 1×. Samples were run on NuPAGE Novex 4-12% Bis-Tris protein gels (Life Technologies, Carlsbad, Calif.), transferred electrophoretically to 0.45 μm PVDF membranes (Immobilon, EMD Millipore, Burlington, Mass.), and then blocked with StartingBlock blocking buffer (Thermo Scientific, Waltham, Mass.) for 1 hour at room temperature. Primary antibodies were incubated at 4° C. overnight in StartingBlock buffer at 1:1,000 dilution, unless noted otherwise. Primary Antibodies used in the experiments described herein are provided below:\nGiven the unexpected sensitivity of GNAQ^Q209L mutation to YM in the melan-a system, the effect of YM on three human UVM cell lines that harbored the GNAQ^Q209L/P mutation was evaluated, using the BRAF^V600E mutant A375 cutaneous melanoma cell line as a negative control."}, "[3]": {"tested_on": "CYSLTR2^L129Q", "experiment": "IP1 accumulation assay in transiently transfected HEK293T cells", "type": "cell-based, human", "conditions": "24-hour treatment", "description": "Cells were treated with YM at increasing doses for 24 hours. Error bars, s.e.m. from three biological replicates, each with three technical replicates.\nExogenous Gene Expression. HEK293T cells were transiently transfected to express vectors containing synthetic CYSLTR2 (Moore A R, et al., Nat Genet. 48(6):675 (2016)) and GNAQ. Genewiz was used to codon optimize these sequences for expression in mammalian cells. The human GNAQ α-subunit plasmids encoding for GNAQ mutants Q209L, R183Q and G48V were generated by Quick Change (Agilent Technologies, Santa Clara, Calif.) site-directed mutagenesis. […]\nIP1 Accumulation Assay. IP1 concentrations in GNAQ-transfected HEK293T cells, GNAQ-expressing melan-a cells and uveal melanoma cells was measured using a competitive homogenous time resolved fluorescence (HTRF) assay (CisBio, Bedford, Mass.). […] Following incubation, cells were lysed by adding 3 μL/well of d2-labeled IP1 analogue as the fluorescence acceptor and the Terbium cryptate-labeled anti-IP1 mAb as the fluorescence donor, diluted in the kit-supplied lysis buffer. The plates were incubated overnight at RT and time-resolved fluorescence signals were read using the BioTek Synergy NEO plate reader (BioTek Instruments, Winooski, Vt.) at 620 nm and 655 nm. […] Dose-response curves and bar graphs were analyzed using GraphPad Prism 7.0 software. […]"}}, "data": [{"substance": "YM-254890", "values": [{"measurement": "tumor volume", "setting": "[1]", "value": "moderate reduction"}, {"measurement": "inhibition of PKC and MAPK signaling and cyclin D1 protein", "setting": "[2]; A375 cells (negative control)", "value": "not in A375 cells"}, {"measurement": "p-ERK1/2 level", "setting": "[2]; Mel202 cells, 24 hours", "value": "rebound"}, {"measurement": "inhibition of pRASGRP3", "setting": "[2]; Mel202 cells, earlier time points, in contrast to Mel270 and OMM1.3", "value": "greater inhibition"}, {"measurement": "inhibition of MAPK targets", "setting": "[2]; Mel202 cells, in contrast to Mel270 and OMM1.3", "value": "decreased inhibition"}, {"measurement": "inhibition of MAPK targets (p-CRAF, p-MEK1/2, p-ERK1/2)", "setting": "[2]; Mel270 cells", "value": "significant inhibition"}, {"measurement": "change in pRASGRP3", "setting": "[2]; Mel270 cells, 24 hours", "value": "small decreases"}, {"measurement": "inhibition of MAPK targets (p-CRAF, p-MEK1/2, p-ERK1/2)", "setting": "[2]; OMM1.3 cells", "value": "significant inhibition"}, {"measurement": "change in pRASGRP3", "setting": "[2]; OMM1.3 cells, 24 hours", "value": "small decreases"}, {"measurement": "inhibition of PKC and MAPK signaling and cyclin D1 protein", "setting": "[2]; UVM cells", "value": "inhibited"}, {"measurement": "potency of inhibition of IP1 accumulation", "setting": "[3]", "value": "subnanomolar potency"}]}]}
